Measurements taken from patent US11226340B2, “Therapeutically triggering an innate immune response in a target tissue” (priority 2016, dated 2022).

How the values were obtained:
B16 melanoma [1] = experiment: STING agonist combined with SSI in B16 melanoma lung model; type: in vivo, mouse; settings: day +14
Description: The anti-tumour efficacy of QBKPN SSI in combination with the STING agonist 2′2′-cGMAP (inVivoGen) was evidenced in C57Bl/6 mice, as follows. On ˜day −31, mice were infected with K. pneumoniae (2.5×10^5 cells/mouse) by oropharyngeal instillation after being anaesthetized with isofluorane, then rested. Within 5-7 days, all mice were fully recovered from K. pneumonia challenge. Starting on day −10, some mice were S.C. injected with QBKPN SSI; mice were injected every other day from Day −10 to day +12. Injections were performed in rotating sites at a dose of 0.03 ml of a 5.0 OD suspension. On days −10, −6, and −4, some mice were also treated with STING agonist (SC injection of 10 μg/mouse in 20 μl of saline), either co-mixed with SSI or s.c. in a distal site (nape). On Day 0, mice were challenged with B16 melanoma by tail-vein (I.V.) injection of singlecell suspensions of tumour cells (2.0×10^5 cells/mouse). On day +14, plasma was collected for ELISA, then mice were sacrificed and visual metastases counted and recorded. Serum was collected into heparin-containing tubes, then centrifuged to remove cells. ELISA (RND Systems DuoSet DY485, limit of detection […]) was performed per the manufacturer's protocol. […] Statistical differences were evaluated by unpaired T test (GraphPad PRISM).

B16 melanoma [2] = experiment: Cancer antigen (gp100) potentiation in B16 melanoma lung model; type: in vivo, mouse; settings: K. pneumoniae-pre-exposed mice; day +14

Nc1nc2c(ncn2[C@@H]2O[C@@H]3COP(=O)(O)O[C@@H]4[C@H](O)C(COP(=O)(O)O[C@@H]2C3O)O[C@H]4n2cnc3c(N)ncnc32)c(=O)[nH]1 (stereo partly drawn) [STING agonist, 2′2′-cGMAP]
tumour burden (tumour nodules in the lungs) (B16 melanoma [1]; K. pneumoniae-pre-exposed mice): reduced tumour burden (p=0.0038)
circulating (plasma) levels of IFN-γ (B16 melanoma [1]): enhanced circulating levels of IFN-γ

KVPRNQDWL [gp100, melanoma-specific antigen gp100 25-33 peptide]
tumour burden (metastatic-like B16 melanoma in the lungs) (B16 melanoma [2]): no significant effect
